Assays:
Type in all cases: cell-based
PLK1 = biological target: T1, PLK1 (Homo sapiens, UniProt P53350); experiment: Luciferase assay for PLK1 in HeLa LgBit (Plk1-HiBit KI) cell line; details: 300 nM compound, luminescence after 9 hours
T1 construct: endogenous in cells; host or cells: HeLa LgBit (Plk1-HiBit KI): HeLa stably expressing LgBit, with a CRISPR/Cas9 knock-in of HiBit at the endogenous PLK1 locus
In short: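 HeLa LgBit cells with endogenous PLK1 C-terminally HiBit-tagged by CRISPR knock-in; released from 24 h 2 mM thymidine block, seeded, grown 18 h. Compounds at 300 nM with Endurazine substrate; luminescence (470-480 nm) tracked in real time, expressed as ratio to DMSO.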

NCI-H526 cell line = experiment: Cell viability assay for NCI-H526 cell line (EZ-Cytox); details: Homo sapiens, NCI-H526, 120 h; H526 cells, 5 days, 3000 nM to 0.46 nM
In short: (§1)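 Human SCLC lines cultured with compound for 5 days in a CO2 incubator; viability read by EZ-Cytox absorbance at 450 nm after 3 min shaking. IC50 reported in activity bins (A: <30 nM up to E: <400 nM).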

NCI-H69 cell line = experiment: Cell viability assay for NCI-H69 cell line (EZ-Cytox); details: Homo sapiens, NCI-H69, 120 h; H69 cells, 5 days, 3000 nM to 0.46 nM
In short: as §1

MRC-5 cell line = experiment: Cell viability assay for MRC-5 cell line (EZ-Cytox); details: Homo sapiens, MRC5, 120 h; MRC-5 normal cell line, 5 days, 10000 nM to 1.52 nM; read-out: Activity: IC50 value, cell viability, MRC-5 cell line (Exemplary Compounds)
Procedure: 4. Cell Viability Assay for MRC-5 Cell Line
(1) Culture of MRC-5 Cell Line
The MRC-5 cell line was purchased from KCLB. Passage of cultured cells was maintained within P15.
(2) Treatment of Compounds of the Present Invention
Then, it was cultured in 37° C. CO2 incubator (Thermo Fisher Scientific) for 5 days.
(3) Cytotoxicity Experiment
CO2 incubator for 4 hours.

T1 sequence (P53350 whole entry): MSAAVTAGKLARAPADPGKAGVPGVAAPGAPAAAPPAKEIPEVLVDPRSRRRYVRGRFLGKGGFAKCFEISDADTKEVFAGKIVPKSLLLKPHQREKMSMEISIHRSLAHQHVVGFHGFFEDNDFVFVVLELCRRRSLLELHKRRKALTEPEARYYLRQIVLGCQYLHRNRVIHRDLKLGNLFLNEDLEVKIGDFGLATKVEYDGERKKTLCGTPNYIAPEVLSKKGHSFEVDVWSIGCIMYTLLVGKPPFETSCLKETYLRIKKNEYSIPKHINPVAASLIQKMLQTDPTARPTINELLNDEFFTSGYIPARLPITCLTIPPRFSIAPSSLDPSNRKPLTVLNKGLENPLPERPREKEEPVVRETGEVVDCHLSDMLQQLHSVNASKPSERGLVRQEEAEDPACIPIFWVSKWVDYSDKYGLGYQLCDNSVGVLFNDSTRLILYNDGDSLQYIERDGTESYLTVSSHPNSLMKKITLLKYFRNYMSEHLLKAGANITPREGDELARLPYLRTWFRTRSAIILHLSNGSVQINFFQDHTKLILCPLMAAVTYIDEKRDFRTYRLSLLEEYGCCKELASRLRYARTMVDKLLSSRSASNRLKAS

Row | Activity: ratio of the luminescence value of compound treatment group to DMSO treatment group (PLK1) | SMILES | IC50 (NCI-H526 cell line) [nM] | IC50 (NCI-H69 cell line) [nM] | IC50 (MRC-5 cell line) [nM]
1 | ++ (++: <0.5) | COc1cc(C(=O)NN2CCC(CCN3CCN(c4cc(C#N)c(NC5CCC(=O)NC5=O)cc4F)CC3)CC2)ccc1Nc1ncc2c(n1)N(C1CCCC1)CC(F)(F)C(=O)N2C (centres unmarked) [Compound 76, N(4-(2-(4-(5-cyano-4-((2,6-dioxopiperidin-3-yl)amino)-2-fluorophenyl)piperazin-1-yl)ethyl)piperidin-1-yl)-4-((9-cyclopentyl-7,7-difluoro-5-methyl-6-oxo-6,7,8,9-tetrahydro-5H-pyrimido[4,5-b][1,4]diazepin-2-yl)amino)-3-methoxybenzamide] | < 30 | < 30 | > 10000
2 | ++ (++: <0.5) | COc1cc(C(=O)NN2CCC(CCN3CCN(c4ccc(NC5CCC(=O)NC5=O)nc4)CC3)CC2)ccc1Nc1ncc2c(n1)N(C1CCCC1)CC(F)(F)C(=O)N2C (centres unmarked) [Compound 77, 4-((9-cyclopentyl-7,7-difluoro-5-methyl-6-oxo-6,7,8,9-tetrahydro-5H-pyrimido[4,5-b][1,4]diazepin-2-yl)amino)-N-(4-(2-(4-(6-((2,6-dioxopiperidin-3-yl)amino)pyridin-3-yl)piperazin-1-yl)ethyl)piperidin-1-yl)-3-methoxybenzamide] | < 30 | < 30 | > 10000

Source: patent US20260273072A1, “NOVEL PLK1 DEGRADATION INDUCING COMPOUND” (UPPTHERA, INC., priority 2023, published 2026)
